Data: patent US20110190373A1, “METHODS AND COMPOSITIONS FOR THE TREATMENT OR PREVENTION OF PATHOLOGICAL CARDIAC REMODELING AND HEART FAILURE” (UNIVERSITY OF ROCHESTER, priority 2008, published 2011)
“Also recorded” adds a separate entry of the source.

Tests used:
[1] = test system: rat neonatal cardiomyocytes; test: PE-induced cardiomyocyte hypertrophy, protein synthesis by [3H]-leucine incorporation; type: cell-based; details: NRVM
Procedure: (§1) FIGS. 3A-C show the effects of PDE1 inhibitors on pathological cardiomyocyte hypertrophy. Myocyte hypertrophy was induced in NRVM by α-adrenergic agonist, phenylephrine (PE). Hypertrophy was assessed by protein synthesis by measuring [^3H]-leucine incorporation (normalized to the total DNA content), or by myocyte surface area. PDE inhibitor 8-MM-IBMX (at 10 μM the concentration selective to PDE1) blocked PE-induced cardiomyocyte protein synthesis measured by [^3H]-leucine incorporation (FIG. 3A) or measured by myocyte surface area (FIG. 3B).
Rat neonatal cardiomyocytes were cultured in serum-free medium for 24 hours. […] Cells were lysed and ^3H-leucine incorporation in cell lysates were then measured by scintillation counter. […]
(§2) FIG. 4A illustrates a representative Western blot showing PDE1A protein expression in neonatal cardiomyocytes either not transfected (NT), or transfected with off-targeting control siRNA (1 μg) or rat PDE1A siRNA (0.5 or 1.0 μg) for 72 hours via electroporation. […] Protein synthesis assessed by [^3H]-leucine incorporation (normalized to the total DNA content) in NRVM transfected with 1 μg of control siRNA or PDE1A siRNA followed by PE (50 μmol/L) or vehicle (ctrl) stimulation for 48 hours (FIG. 4B). […] Data were quantified by densitometry in a linear range and normalized to GAPDH mRNA levels. […]

[2] = test system: rat neonatal cardiomyocytes; test: PE-induced cardiomyocyte hypertrophy, myocyte (cell) surface area; type: cell-based; details: NRVM
Procedure: as §1
Effects of PDE1 inhibitor 8-MM-IBMX on PE-stimulated cell hypertrophic growth were measured by cell surface area (FIG. 3B). Rat neonatal cardiomyocytes were treated with either […] or vehicle, followed without (ctrl) or with PE stimulation. Cells were stained for α-actinin (a cardiomyocyte specific marker) to exclude the contamination of cardiac fibroblasts. At lease 100 α-actinin positive cells were analyzed. Cell surface area was measured by Image J program.
Effects of PDE1 inhibitor vinpocetine on PE-stimulated cell hypertrophic growth were measured by cell surface area (FIG. 3C). Rat neonatal cardiomyocytes were treated with either 20 μM Vinpocetine (vinp) or vehicle, followed without (ctrl) or with PE stimulation. Cell surface area was measured as above. Data were normalized to control (vehicle, without PE) that was arbitrarily set to 1.0. Data are means of at least 100 cells (mean±SD). […]
as §2

[3] = test system: mouse cardiac hypertrophy; test: Cardiac hypertrophy induced by chronic ISO infusion in mice; type: in vivo; details: i.p. 10 mg/kg/d, ISO 30 mg/kg/d for 7 days
Procedure: FIGS. 5A-F illustrate that Vinpocetine attenuates cardiac hypertrophy in vivo. C57 mice received continuous vehicle (0.002% ascorbic acid in PBS) or ISO (30 mg/kg/d) infusion via osmotic pumps for 7 days, and also received daily DMSO or Vinpocetine treatment (i.p. 10 mg/kg/d). Control group (Con): mice receiving only vehicle infusion for 7 days. ISO group: mice receiving ISO infusion and DMSO treatment for 7 days. ISO+Vinp group: mice receiving ISO infusion and vinpocetine treatment for 7 days. After 7 days, animals were sacrificed and hearts were excised, weighed, frozen in −80° C. for mRNA assay, or fixed in 10% formalin for histology analysis. FIG. 5A are representative gross heart images showing effects of PDE1 inhibitor on cardiac hypertrophy. FIGS. 5B-C are graphs showing the effect of Vinpocetine on heart to body weight ratio or heart weight to tibial length ratio, respectively. […] FIGS. 5E-F are graphs showing the effect of Vinpocetine on ANP and BNP mRNA expression, respectively. Total RNA from left ventricles were subjected to real-time RT-PCR analyses for the mRNA levels of ANP and BNP. Data were normalized to control and sham samples that were arbitrarily set to 1.0. Data represent mean of 4 animals (mean±SEM). **P<0.01 vs. control mice. ##P<0.01 vs. ISO-infused mice without Vinpocetine. […] PDE1 is a well known biological target for Vinpocetine. […] Based on these reasons, the effects of Vinpocetine were tested on cardiomyocyte hypertrophy in vivo.

[4] = therapeutic doses, patients; cited from earlier work
[5] = 20 μM, α-actinin positive cells

Row | Structure (SMILES) | PE-induced cardiomyocyte protein synthesis measured by [3H]-leucine incorporation ([1]; 10 μM (figure legend)) | PE-induced hypertrophy assessed by protein synthesis with 3H-leucine incorporation ([1]; 20 μmol/L, PE 48 hours, normalized to DNA content) | PE-induced hypertrophy measured by myocyte surface area ([2]; 10 μM (figure legend)) | PE-induced hypertrophy measured by myocyte surface area [2, 5] | ISO-induced increase in cross-section areas of cardiomyocytes in left ventricles ([3]; H&E staining) | cardiac hypertrophy measured by gross heart morphology ([3]; mouse) | heart weight/body weight (HW/BW) ratio ([3]; mouse) | heart weight/tibia length (HW/TL) ratio ([3]; mouse) | ANP mRNA level in left ventricle ([3]; real-time RT-PCR) | BNP mRNA level in left ventricle ([3]; real-time RT-PCR) | side effects, toxicity or contraindications [4]
1 | COCc1nc2c([nH]1)c(=O)n(C)c(=O)n2CC(C)C [8-MM-IBMX, 8-methoxymethyl-isobutylmethylxanthine] | blocked | significantly attenuated | blocked | significantly attenuated | – | – | – | – | – | – | –
2 | CCOC(=O)C1=C[C@]2(CC)CCCN3CCc4c(n1c1ccccc41)[C@@H]32 [Vinpocetine, (+)-vinpocetine] | – | – | – | significantly reduced; also recorded: significantly blocked | significantly attenuated | significantly reduced | significantly reduced | significantly reduced | significantly decreased | significantly decreased | no reports of significant side effects, toxicity or contraindications
